Data taken from paper PMC7490411 (Signal Transduction and Targeted Therapy, 2020).

Columns and labels:
Assay type in all cases: binding
PIK4CB = test: KINOMEscan; conditions: 1000 nM
YSK4 = test: KINOMEscan; conditions: 1000 nM
PFTAIRE2 = test: KINOMEscan; conditions: 1000 nM
GCN2(Kin.Dom.2,S808G) = test: KINOMEscan; conditions: 1000 nM
EGFR(T790M) = test: KINOMEscan; conditions: 1000 nM
CSNK1A1 = test: KINOMEscan; conditions: 1000 nM
PIM2 = test: KINOMEscan; conditions: 1000 nM
EIF2AK1 = test: KINOMEscan; conditions: 1000 nM
EGFR(S752-I759del) = test: KINOMEscan; conditions: 1000 nM
CDC2L2 = test: KINOMEscan; conditions: 1000 nM
SgK110 = test: KINOMEscan; conditions: 1000 nM
TXK = target: T1, TXK (Homo sapiens, UniProt P42681); test: KINOMEscan; conditions: 1000 nM
T1 construct: purchased Invitrogen (Carlsbad, CA, USA)
T1 sequence (P42681 whole entry): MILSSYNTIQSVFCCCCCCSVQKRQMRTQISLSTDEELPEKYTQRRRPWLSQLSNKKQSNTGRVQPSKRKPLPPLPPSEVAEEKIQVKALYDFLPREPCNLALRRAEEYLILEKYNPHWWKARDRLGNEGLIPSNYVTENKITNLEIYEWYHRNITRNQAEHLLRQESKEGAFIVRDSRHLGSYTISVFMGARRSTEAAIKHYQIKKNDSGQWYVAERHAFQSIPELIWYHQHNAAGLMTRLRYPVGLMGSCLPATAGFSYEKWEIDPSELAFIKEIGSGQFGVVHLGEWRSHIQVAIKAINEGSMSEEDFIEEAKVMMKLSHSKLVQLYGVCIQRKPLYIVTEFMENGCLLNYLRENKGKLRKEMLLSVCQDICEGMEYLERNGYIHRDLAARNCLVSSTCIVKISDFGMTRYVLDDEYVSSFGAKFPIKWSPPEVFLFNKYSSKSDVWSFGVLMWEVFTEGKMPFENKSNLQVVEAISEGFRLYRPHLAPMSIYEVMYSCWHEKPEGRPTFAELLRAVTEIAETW

PDPK1 = test: KINOMEscan; conditions: 1000 nM
PAK7 = test: KINOMEscan; conditions: 1000 nM
CDK8 = test: KINOMEscan; conditions: 1000 nM
RIOK3 = test: KINOMEscan; conditions: 1000 nM
PAK1 = test: KINOMEscan; conditions: 1000 nM
PDGFRB = test: KINOMEscan; conditions: 1000 nM
TLK1 = test: KINOMEscan; conditions: 1000 nM
PIK3CA(I800L) = test: KINOMEscan; conditions: 1000 nM
ZAP70 = test: KINOMEscan; conditions: 1000 nM
ASK2 = test: KINOMEscan; conditions: 1000 nM
HIPK1 = test: KINOMEscan; conditions: 1000 nM
TAOK3 = test: KINOMEscan; conditions: 1000 nM
EPHB2 = test: KINOMEscan; conditions: 1000 nM
OSR1 = test: KINOMEscan; conditions: 1000 nM
ERBB3 = test: KINOMEscan; conditions: 1000 nM
CAMK1 = test: KINOMEscan; conditions: 1000 nM
PIK3CA(E545A) = test: KINOMEscan; conditions: 1000 nM
CSNK1G3 = test: KINOMEscan; conditions: 1000 nM
BIKE = test: KINOMEscan; conditions: 1000 nM
TBK1 = test: KINOMEscan; conditions: 1000 nM
AMPK-alpha1 = test: KINOMEscan; conditions: 1000 nM
[1] = tested on: RSK3(Kin.Dom.2-C-terminal); test: KINOMEscan; conditions: 1000 nM
[2] = tested on: ABL1(T315I)-nonphosphorylated; test: KINOMEscan; conditions: 1000 nM
PRKCQ = test: KINOMEscan; conditions: 1000 nM
MEK3 = test: KINOMEscan; conditions: 1000 nM
TIE1 = test: KINOMEscan; conditions: 1000 nM
MEK4 = test: KINOMEscan; conditions: 1000 nM
[3] = tested on: RSK1(Kin.Dom.1-N-terminal); test: KINOMEscan; conditions: 1000 nM
EGFR(E746-A750del) = test: KINOMEscan; conditions: 1000 nM
MELK = test: KINOMEscan; conditions: 1000 nM
BTK = target: T2, BTK (Homo sapiens, UniProt Q06187); test: target-engagement assay with biotinylated probe CHMFL-BTK-85B in REC-1 cell; conditions: 2 h, 1 μM
T2 construct: purchased Invitrogen (Carlsbad, CA, USA)
T2 sequence (Q06187 whole entry): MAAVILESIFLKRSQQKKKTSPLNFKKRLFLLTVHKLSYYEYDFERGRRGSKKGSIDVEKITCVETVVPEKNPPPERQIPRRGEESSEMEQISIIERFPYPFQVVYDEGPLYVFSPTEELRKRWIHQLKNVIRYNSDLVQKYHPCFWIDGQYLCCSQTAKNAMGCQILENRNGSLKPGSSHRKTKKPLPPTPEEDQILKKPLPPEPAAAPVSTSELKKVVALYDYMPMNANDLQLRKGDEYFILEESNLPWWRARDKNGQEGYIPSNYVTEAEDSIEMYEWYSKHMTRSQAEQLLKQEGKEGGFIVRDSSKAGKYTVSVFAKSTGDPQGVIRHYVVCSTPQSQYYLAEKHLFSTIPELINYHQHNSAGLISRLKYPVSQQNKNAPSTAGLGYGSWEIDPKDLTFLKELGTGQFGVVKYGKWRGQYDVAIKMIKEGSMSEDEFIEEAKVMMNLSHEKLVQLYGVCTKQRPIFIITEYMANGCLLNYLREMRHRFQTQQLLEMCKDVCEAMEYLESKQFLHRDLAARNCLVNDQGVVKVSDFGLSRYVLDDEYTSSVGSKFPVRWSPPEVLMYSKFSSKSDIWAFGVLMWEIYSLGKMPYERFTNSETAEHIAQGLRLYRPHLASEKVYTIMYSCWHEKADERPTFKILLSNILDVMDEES
Description: Cell lysates from REC-1 cells were treated with different concentrations of covalent inhibitor CHMFL-BTK-85 on ice for 2 hours. 1 µM biotinylated covalent probe (CHMFL-BTK-85B) was then added and lysates were incubated for another 2 hours. Uninhibited BTK was then captured by adding 50 µl Streptavidin agarose resin suspensions (Pierce) followed by an incubation for 1 hour. The resin was then spun down, washed briefly with 1X PBS buffer, and then resuspended in protein sample buffer for Western blot analysis.

[4] = tested on: ABL1(Y253F)-phosphorylated; test: KINOMEscan; conditions: 1000 nM
ASK1 = test: KINOMEscan; conditions: 1000 nM
MAP4K4 = test: KINOMEscan; conditions: 1000 nM
HIPK3 = test: KINOMEscan; conditions: 1000 nM
468 kinases/mutants = test: KINOMEscan kinome-wide selectivity profiling; conditions: 1 μM
Description: Here, we report the discovery of a novel covalent BTK inhibitor, CHMFL-BTK-85 (abbreviated as compd. 85) (chemical structure shown in Fig. 1a), which achieves high potency against BTK and selectivity over other protein kinases. […] To further confirm that compd. 85 could covalently bind to wide-type native BTK in cell, we then conducted a target-engagement assay using the biotinylated analog of compd. 85, i.e., CHMFL-BTK-85B (Supplementary Fig. S2), in REC-1 cell which expresses native BTK kinase. […] To further investigate the selectivity of compd. 85 in the kinome, we then tested it among 468 kinases/mutants with KINOMEscan^TM technology.

CDC2L5 = test: KINOMEscan; conditions: 1000 nM

What does the source list for `C=CC(=O)Nc1cc(Nc2cc(-c3cccc(NC(=O)c4cc5c(s4)CCCC5)c3C)cn(C)c2=O)ccc1N1CCN(CC)CC1` [CHMFL-BTK-85]?
Percent Control (PIK4CB): 100%; Percent Control (YSK4): 100%; Percent Control (PFTAIRE2): 99%; Percent Control (GCN2(Kin.Dom.2,S808G)): 75%; Percent Control (EGFR(T790M)): 98%; Percent Control (CSNK1A1): 100%; Percent Control (PIM2): 87%; Percent Control (EIF2AK1): 100%; Percent Control (EGFR(S752-I759del)): 90%; Percent Control (CDC2L2): 89%; Percent Control (SgK110): 92%; percent of control binding at 1 µM (TXK): 82%; Percent Control (PDPK1): 77%; Percent Control (PAK7): 82%; Percent Control (CDK8): 100%; Percent Control (RIOK3): 100%; Percent Control (PAK1): 75%; Percent Control (PDGFRB): 68%; Percent Control (TLK1): 99%; Percent Control (PIK3CA(I800L)): 100%; Percent Control (ZAP70): 100%; Percent Control (ASK2): 100%; Percent Control (HIPK1): 75%; Percent Control (TAOK3): 100%; Percent Control (EPHB2): 84%; Percent Control (OSR1): 100%; Percent Control (ERBB3): 95%; Percent Control (CAMK1): 100%; Percent Control (PIK3CA(E545A)): 65%; Percent Control (CSNK1G3): 100%; Percent Control (BIKE): 100%; Percent Control (TBK1): 72%; Percent Control (AMPK-alpha1): 100%; Percent Control [1]: 79%; Percent Control [2]: 94%; Percent Control (PRKCQ): 80%; Percent Control (MEK3): 100%; Percent Control (TIE1): 87%; Percent Control (MEK4): 100%; Percent Control [3]: 100%; Percent Control (EGFR(E746-A750del)): 100%; Percent Control (MELK): 99%; covalent labelling of BTK in competition with CHMFL-BTK-85B (BTK): almost completely covalently label all of the available BTK; Percent Control [4]: 83%; Percent Control (ASK1): 86%; Percent Control (MAP4K4): 90%; Percent Control (HIPK3): 100%; S Score (1) (468 kinases/mutants): 0.00; Percent Control (CDC2L5): 100%
